Experimental data published in patent US20250302846A1, “ANTIBIOTIC COMPOSITION AND METHODS OF USE THEREOF” (THE REGENTS OF THE UNIVERSITY OF COLORADO A BODY CORPORATE, priority 2022, published 2025).
pIC50: −log10 of the molar value. Read-outs that look alike come from different tables or passages of the source.

Legend:
[1] = system: S. Typhimurium SL1344 or 14028 in RAW 264.7 cells; assay: CFU assay in infected RAW 264.7 macrophages; type: cell-based; conditions: for pIC50: Salmonella enterica, TYPHIMURIUM
Description: FIG. 1A-D. D66 is a small molecule that prevents S. Typhimurium replication and/or survival in macrophages. A). Structure of D66. B) RAW264.7 macrophage-like cells were infected with S. Typhimurium harboring a chromosomal sifB: : gfp reporter, treated with DMSO or D66 at two hours after infection, and monitored for bacterial accumulation (GFP+Macrophage Area) over 16 hours using the SAFIRE (Screen for Anti-infectives using Fluorescence microscopy of Intracellular Enterobacteriaceae) assay. The IC50 value is indicated. Mean and SD of biological duplicates with technical duplicates across 9 dilutions of D66. C, D) CFU assays were performed with RAW264.7 or HeLa cells infected with S. Typhimurium SL1344 or 14028 for two hours and treated for 16 hours with DMSO or 1.5-fold dilutions of D66, prior to lysis and plating for CFU. Symbols on the Y-axes are the CFU value from DMSO-treated samples. The IC50 values are indicated. Mean and SEMs of biological triplicates with technical duplicates across 8 dilutions of D66.
CFU assays were performed with RAW 264.7 cells seeded as above or with Hela cells (ATCC CCL-2) seeded at 1x10^4 cells per 96-well. Cells were infected as described above with either S. Typhimurium SL1344 or 14028, as indicated at an approximate MOI of 30 bacteria per RAW 264.7 cell and 150 bacteria per HeLa cell. Plates were centrifuged and gentamicin treated as above. At 18 hours after infection, wells were washed twice with PBS and lysed with 30 μL 0.1% Triton X-100 in PBS for five minutes. Lysed cells were plated to L-agar and enumerated for CFU.

S. Typhimurium [2] = assay: Propidium iodide membrane barrier assay; type: cell-based
Description: (§1) FIG. 3A-F. D66 rapidly perturbs the bacterial cytoplasmic membrane with minor disruption of barrier function. Mid-log phase S. Typhimurium cells grown in LB with 0.5 μg/mL PMB were used for all experiments. A) Cell membrane potential was monitored with the fluorescent dye DiSC3 (5). Cells were treated at time 0 with DMSO, JD1 [70 μM], or D66. Data were normalized to DMSO at time 0 and corrected for the quenching effect of D66 (FIG. 6A, B) B) Cell membrane permeability was monitored by PI fluorescence. Cells were treated at time 0 with DMSO, SDS [0.005%] or D66. Samples were processed at the time points shown. A one-way ANOVA with a Dunnet's multiple comparison test, * P<0.005. C-F) Growth curves and kill-curves of cells treated at time 0 with either DMSO or D66. Culture aliquots were monitored for OD600 (C, E) or plated for enumeration of CFU (D, F). Data are presented as fold change. Mean and SEM of three biological replicates with technical triplicates are shown in all panels.
Propidium iodide membrane barrier assays: Compound, DMSO, or SDS was added to mid-log phase cells to the desired concentration, and cultures were sampled at 0, 10, 15, 20, 30 and 45 minutes. Five minutes before harvesting, PI [10 μg/mL] (Life Technologies) was added. Cells were pelleted, washed twice, resuspended in PBS, and monitored (ex535/em617 nm) using a BioTek Synergy H1 plate reader.

[3] = system: staphylococcal persister cells; assay: Staphylococcal persister cell viability in broth; type: cell-based; conditions: overnight cultures in broth, D66 at MIC95
Description: A-D) Overnight cultures of the indicated strains were treated at time 0 with DMSO, ciprofloxacin [4 μg/mL], vancomycin [10 μg/mL], or the corresponding MIC95 concentration of D66 (1x MIC95=130 μM, 49 μg/mL). Cultures were plated for enumeration of CFU at time points indicated. Mean and SEM of three biological replicates. E) RAW 264.7 macrophage-like cells and HeLa cells were infected with S. aureus USA300, at MOIs of 0.5 and 2.5, respectively. Cells were treated two hours after infection with DMSO (gray circle on Y axis), or dilutions of D66 from 40 μM. After 8 hours of infection, cells were lysed and plated for enumeration of CFU. Mean and SEM of biological duplicates performed with technical triplicates each with six dilutions of D66. The IC50 value that was calculatable is indicated.

[4] = Murine tolerability after a single dose; type: in vivo, C57BL/6 mice; conditions: mice
Description: Murine pharmacokinetic analyses and infections: Three female C57BL/6 mice were injected intraperitoneally (IP) with 50 mg/kg of D66 formulated in DMSO (50 μL). […] Three mice were initially dosed and observed for 24 hours to determine tolerability. […] Plasma D66 levels were measured using a liquid chromatography coupled to tandem mass spectrometry (LC/MS/MS) assay by the University of Colorado Cancer Center Drug Discovery and Development Shared Resource. The assay used monitored the transition of D66 (376 m/z->176 m/z) and was linear from 1-1000 ng/ml with an accuracy and precision of 90.3%+10.4% (% CV) based on quality control (QC) samples included with analyzed unknown samples.

S. Typhimurium [5] = assay: Growth curves and kill curves; type: cell-based; conditions: outer-membrane perturbing conditions, D66 at 2x MIC, LB or MHB, 18 hours
Description: as §1
Growth curves and kill curves: Mid-log phase cultures were sampled at time 0 and then compound or vehicle control (DMSO) was added. Cultures were incubated at 37° C. with agitation. At the time intervals indicated, aliquots were monitored for OD600 and plated for CFU enumeration. Data for OD600 and CFU/mL were normalized to time 0.

[6] = system: one-day-old staphylococcal biofilms; assay: One-day-old staphylococcal biofilms; type: cell-based; conditions: biofilms established 24 hours in TSB, treated 18 hours
Description: For the indicated strain, biofilms established in TSB for 24 hours were treated for 18 hours with DMSO, rifampin (1x MIC95=0.05 μg/mL), vancomycin (1x MIC95=1 μg/mL), or D66. The remaining biofilm (A-D) matrix was quantified with crystal violet or E-F) volume was quantified after Syto9 and PI staining as in FIG. 5. G, H) Syto9 and PI-stained Z-stacked images were converted to volumes. Volume data were compiled and reconstructed in Nikon Elements Advanced Research software using a color-coded volume display where blue is the bottom, lowest Z-stack and magenta is the highest point for each sample. Scale bar is in um.
Asterisks indicate P≤0.05 as determined by one-way ANOVA compared to DMSO. A-D are means and SEMs from three biological replicates performed in triplicate. E-F are means and SDs of one of two replicates derived from a minimum of four fields of view. G-H are representative images from this same replicate as in E-F.

O=C(Nc1cc(Cl)cc(Cl)c1)N1CCCN(Cc2ccccc2)CC1 [D66]
pIC50 ([1]; RAW264.7, 16 h, S. Typhimurium 14028 in macrophages, treated 16 hours, read-out: CFU IC50): 5.31 | pIC50 ([1]; RAW264.7, 16 h, S. Typhimurium SL1344 in macrophages, treated 16 hours, read-out: CFU IC50): 5.11 | pIC50 ([1]; RAW264.7, as quoted for dose selection, read-out: IC50 of D66 against S. Typhimurium in macrophages): ~5.11 | CFU reduction ([1]; macrophages): > 1000 fold | time elapsed prior to an increase in PI fluorescence (S. Typhimurium [2]; LB with PMB [0.5 μg/mL], D66 at 1x MIC95): 45 min | time of treatment after which PI signal increased (S. Typhimurium [2]; LB with PMB [0.5 μg/mL], D66 at 2x MIC95, SDS [0.005%] positive control): 10 min | PI signal increase (S. Typhimurium [2]; at 1x MIC, within 30 minutes): two-fold | number of viable staphylococcal persister cells [3]: did not reduce the number of viable staphylococcal persister cells in broth | observable toxicity and gross pathological lesions in liver, kidney, and gastrointestinal tissues ([4]; 50 mg/kg IP, observed for 24 hours): lack of observable toxicity and gross pathological lesions | adverse effects (hunching, tachypnea, or abnormal ambulation) ([4]; single intraperitoneal dose of 50 mg/kg, after 24 hours): No adverse effects | absorbance and CFU of bacteria (cell lysis) (S. Typhimurium [5]): did not reduce the absorbance nor the CFU of bacteria | number of live cells in one-day-old biofilms [6]: decreases the number of live cells
